3 compounds from US9035056B2, “Pyrido[4,3-b]indole and pyrido[3,4-b]indole derivatives and methods of use” (Medivation Technologies, Inc., priority 2011, dated 2015) can be followed below.

In assay [1] the target is T1, rat adrenergic α1B receptor (Rattus norvegicus, UniProt P15823).
T1 construct: rat adrenergic α1B receptor obtained from Wistar Rat liver; from tissue; host or cells: Wistar rat liver
T1 sequence (P15823 1-515): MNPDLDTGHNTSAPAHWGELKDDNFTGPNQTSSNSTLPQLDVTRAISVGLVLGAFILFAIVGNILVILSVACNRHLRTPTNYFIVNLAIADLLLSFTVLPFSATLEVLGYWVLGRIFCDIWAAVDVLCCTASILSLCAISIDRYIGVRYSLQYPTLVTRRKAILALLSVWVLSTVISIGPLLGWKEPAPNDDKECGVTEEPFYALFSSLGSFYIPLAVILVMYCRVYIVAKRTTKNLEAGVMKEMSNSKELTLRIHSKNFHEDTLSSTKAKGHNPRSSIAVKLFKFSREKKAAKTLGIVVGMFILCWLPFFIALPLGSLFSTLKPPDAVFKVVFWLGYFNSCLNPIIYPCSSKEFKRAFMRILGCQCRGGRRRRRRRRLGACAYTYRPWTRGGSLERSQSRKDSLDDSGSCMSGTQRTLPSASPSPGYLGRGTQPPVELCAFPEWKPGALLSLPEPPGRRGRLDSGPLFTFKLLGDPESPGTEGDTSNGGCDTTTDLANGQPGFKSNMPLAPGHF
Nature of the assay: Adrenergic α1B radioligand binding ([3H]Prazosin). As to conditions: 0.1 μM compound; 0.1 µM. The method, then: To evaluate in radioligand binding assays the activity of compounds of the invention, rat adrenergic α1B receptor obtained from Wistar Rat liver (Garcia-S'ainz, J. et al, Biochem. Biophys. Res. Commun. 186:760, 1992; Michel, A. et al, Br. J. Pharmacol. 98:883, 1989) in a modified Tris-HCl buffer (50 mM Tris-HCl buffer, pH 7.4, 0.5 mM EDTA) was used. Compounds of the invention were incubated with 0.25 nM [^3H]Prazosin for 60 min at 25° C. Non-specific binding was estimated in the presence of 10 μM phentolamine. Receptor proteins were filtered and washed, the filters were then counted to determine [^3H]Prazosin specifically bound. Compounds were screened at 1 μM or lower, using 1% DMSO as vehicle. Biochemical assay results are presented as the percent inhibition of specific binding in Table 3.

The target of assay [2] is T2, human recombinant adrenergic α2A receptor (Homo sapiens, UniProt P08913).
T2 construct: expressed in transfected cells; host or cells: insect Sf9 cells
T2 sequence (P08913 1-465): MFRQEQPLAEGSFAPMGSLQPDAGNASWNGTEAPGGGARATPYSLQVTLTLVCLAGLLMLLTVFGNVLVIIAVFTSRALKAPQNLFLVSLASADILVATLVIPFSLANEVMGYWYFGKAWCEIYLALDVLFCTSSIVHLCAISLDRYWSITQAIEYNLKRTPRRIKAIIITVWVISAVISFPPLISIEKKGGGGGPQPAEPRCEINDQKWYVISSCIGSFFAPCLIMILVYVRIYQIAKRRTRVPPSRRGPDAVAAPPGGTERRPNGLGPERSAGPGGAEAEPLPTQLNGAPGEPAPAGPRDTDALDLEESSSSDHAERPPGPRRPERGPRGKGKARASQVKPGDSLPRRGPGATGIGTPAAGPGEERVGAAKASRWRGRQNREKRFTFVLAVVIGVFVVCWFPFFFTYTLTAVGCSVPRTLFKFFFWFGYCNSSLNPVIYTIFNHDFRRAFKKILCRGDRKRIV
Nature of the assay: Adrenergic α2A radioligand binding ([3H]MK-912). To be noted: 0.1 μM compound; 0.1 µM. The method, then:
To evaluate in radioligand binding assays the activity of compounds of the invention, human recombinant adrenergic α2A receptor expressed in insect Sf9 cells (Uhlen, S. et al, J. Pharmacol. Exp. Ther. 271:1558, 1994) in a modified Tris-HCl buffer (50 mM Tris-HCl, pH 7.4, 12.5 mM MgCl2, 2 mM EDTA) was used. Compounds of invention were incubated with 1 nM [^3H]MK-912 for 60 min at 25° C. MK-912 is (2S-trans)-1,3,4,5′,6,6′,7,12b-octahydro-1′,3′-dimethyl-spiro[2H-benzofuro[2,3-a]quinolizine-2,4′(1′H)-pyrimidin]-2′(3′H)-one hydrochloride Non-specific binding was estimated in the presence of 10 μM WB-4101 (2-(2,6-Dimethoxyphenoxyethyl)aminomethyl-1,4-benzodioxane hydrochloride). Receptor proteins were filtered and washed, the filters were then counted to determine [^3H]MK-912 specifically bound. Compounds were screened at 1 μM or lower, using 1% DMSO as vehicle. Biochemical assay results are presented as the percent inhibition of specific binding in Table 3.

The target of assay [3] is T3, human recombinant adrenergic α2B receptor (Homo sapiens, UniProt P18089).
T3 construct: expressed in transfected cells; host or cells: CHO-K1
T3 sequence (P18089 1-450): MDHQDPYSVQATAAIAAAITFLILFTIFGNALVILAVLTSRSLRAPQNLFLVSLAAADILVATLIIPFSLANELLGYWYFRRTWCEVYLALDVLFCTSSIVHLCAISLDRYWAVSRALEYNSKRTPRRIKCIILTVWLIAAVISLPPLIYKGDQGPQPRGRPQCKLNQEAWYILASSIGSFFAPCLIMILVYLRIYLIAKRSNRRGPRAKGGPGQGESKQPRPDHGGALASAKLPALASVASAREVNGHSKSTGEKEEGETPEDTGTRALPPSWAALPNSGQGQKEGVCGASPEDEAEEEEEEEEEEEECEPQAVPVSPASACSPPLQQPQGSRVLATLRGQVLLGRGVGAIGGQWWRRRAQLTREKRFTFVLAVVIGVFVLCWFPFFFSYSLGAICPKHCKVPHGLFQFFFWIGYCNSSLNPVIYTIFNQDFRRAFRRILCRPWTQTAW
Nature of the assay: Adrenergic α2B radioligand binding ([3H]Rauwolscine). As to conditions: 0.03 μM compound; 0.03 µM. The method, then:
To evaluate in radioligand binding assays the activity of compounds of the invention, human recombinant adrenergic α2B receptor expressed in Chinese hamster ovary (CHO) K1 cells (Uhlen, S. et al, Eur. J. Pharmacol. 343(1):93, 1998) in a modified Tris-HCl buffer (50 mM Tris-HCl, pH 7.4, 12.5 mM MgCl2, 1 mM EDTA, 0.2% BSA) was used. Compounds of the invention were incubated with 2.5 nM [^3H]Rauwolscine for 60 min at 25° C. Non-specific binding was estimated in the presence of 10 μM Prazosin. Receptor proteins were filtered and washed, the filters were then counted to determine [^3H]Rauwolscine specifically bound. Compounds were screened at 1 μM or lower, using 1% DMSO as vehicle. Biochemical assay results are presented as the percent inhibition of specific binding in Table 3.

Assay [4] deals with T4, human recombinant histamine H1 receptor (Homo sapiens, UniProt P35367).
T4 construct: expressed in transfected cells; host or cells: CHO-K1
T4 sequence (P35367 whole entry): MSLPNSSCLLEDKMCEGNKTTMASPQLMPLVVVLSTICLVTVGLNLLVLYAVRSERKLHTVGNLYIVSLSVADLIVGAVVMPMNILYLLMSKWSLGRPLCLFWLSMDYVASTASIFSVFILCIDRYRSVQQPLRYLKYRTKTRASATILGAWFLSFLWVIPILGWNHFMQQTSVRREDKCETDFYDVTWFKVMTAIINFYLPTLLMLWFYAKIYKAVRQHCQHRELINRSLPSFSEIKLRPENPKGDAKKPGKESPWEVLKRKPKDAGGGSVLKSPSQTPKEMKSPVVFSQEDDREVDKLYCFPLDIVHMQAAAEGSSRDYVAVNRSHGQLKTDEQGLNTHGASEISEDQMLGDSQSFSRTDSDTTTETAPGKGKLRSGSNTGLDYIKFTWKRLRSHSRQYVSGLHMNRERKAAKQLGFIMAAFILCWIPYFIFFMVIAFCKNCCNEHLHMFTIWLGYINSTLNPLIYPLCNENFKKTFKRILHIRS
Nature of the assay: Histamine H1 radioligand binding ([3H]Pyrilamine). To be noted: 0.1 μM compound; 0.1 µM. The method, then:
To evaluate in radioligand binding assays the activity of compounds of the invention, human recombinant histamine H1 receptor expressed in Chinese hamster ovary (CHO) K1 cells (De Backer, M. et al, Biochem. Biophys. Res. Comm. 197(3):1601, 1993) in a modified Tris-HCl buffer (50 mM Tris-HCl, pH 7.4, 2 mM MgCl2, 100 mM NaCl, 250 mM Sucrose) was used. Compounds of the invention were incubated with 1.2 nM [^3H]Pyrilamine for 180 min at 25° C. Non-specific binding was estimated in the presence of 1 μM Pyrilamine. Receptor proteins were filtered and washed, the filters were then counted to determine [^3H]Pyrilamine specifically bound. Compounds were screened at 1 μM or lower, using 1% DMSO as vehicle. Biochemical assay results are presented as the percent inhibition of specific binding in Table 3.

Each structure is given as a SMILES string.

On to `Cc1ccc2c(c1)c1c(n2CC2(O)CCc3ccccc32)CCN(C)C1` (single isomer, unassigned) [ii-111a], for which the “Percentage inhibition of ligand binding, Adrenergic α1B” value in assay [1] stood at 94%. For the same compound, the “Percentage inhibition of ligand binding, Adrenergic α2A” value in assay [2] was 45%. Also, in assay [3], the “Percentage inhibition of ligand binding, Adrenergic α2B” value is listed as 76%.
On the same counts, the results for `Cc1ccc2c(c1)c1c(n2CC2(O)CCc3ccccc32)CCN(C)C1` (single isomer, unassigned) [ii-111b] are 51%, 22% and 0%.
Consider `Cc1ccc2c(c1)c1c(n2CC2(O)CCCc3ccncc32)CCN(C)C1` (single isomer, unassigned) [ii-113b], for which the “Binding data (Percentage inhibition) Histamine H1 (0.1 μM)” value in assay [4] came out at 6%. Further, the “Percentage inhibition of ligand binding, Adrenergic α1B” value in assay [1] worked out at 82%. The “Percentage inhibition of ligand binding, Adrenergic α2A” value in assay [2] was found to be 8%. In assay [3], the “Percentage inhibition of ligand binding, Adrenergic α2B” value turned out to be 68%.
